From patent US20050256103A1, “Indole derivative having piperidine ring” (Eisai Co., Ltd., priority 2004, published 2005)
Like-named read-outs stand apart in the source and are kept apart here.

Key:
[1] = target: T1, 5-HT1A receptor (Sus scrofa, UniProt A0A4X1UTF5); assay: Affinity for serotonin 1A receptor: inhibition of [3H]MPPF binding in swine hippocampal membrane fraction; conditions: for IC50: swine hippocampal membrane, 37°C 30 min; for L/H ratio: low affinity IC50 divided by high affinity IC50, 1 or smaller = no intrinsic activity, 2 or greater = intrinsic activity
T1 construct: Swine hippocampus was homogenized in a 50 mM Tris-Hcl buffer; from tissue; host or cells: swine hippocampus, membrane fraction
T1 sequence (A0A4X1UTF5 1-422): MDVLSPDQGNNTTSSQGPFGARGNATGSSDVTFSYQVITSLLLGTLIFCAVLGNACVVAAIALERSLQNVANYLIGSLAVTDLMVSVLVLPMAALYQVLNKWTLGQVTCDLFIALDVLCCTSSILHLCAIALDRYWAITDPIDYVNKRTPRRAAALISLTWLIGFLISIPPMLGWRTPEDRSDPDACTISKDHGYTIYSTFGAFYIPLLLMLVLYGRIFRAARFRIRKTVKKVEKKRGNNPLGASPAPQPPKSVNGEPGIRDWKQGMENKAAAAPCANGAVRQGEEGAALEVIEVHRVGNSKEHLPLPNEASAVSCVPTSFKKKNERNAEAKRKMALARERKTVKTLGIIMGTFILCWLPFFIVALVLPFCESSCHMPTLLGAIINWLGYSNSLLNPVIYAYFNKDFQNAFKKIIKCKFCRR
From the text: (1) The affinity of a test substance for a 5-HT1A receptor was examined by an inhibition experiment, in which the inhibitory effect of the test substance against the binding of [^3H]-4-(2′-methoxy)phenyl-1-(2′-(N-2″-pyridinyl)-p-fluorobenzamido)ethyl-piperazine (MPPF) that selectively binds to the 5-HT1A receptor in a swine hippocampal membrane fraction was examined. The 5-HT1A receptor that is a G-protein binding receptor becomes a G-protein binding state with addition of MgCl2. In contrast, it becomes a G-protein non-binding state with addition of guanylylimido diphosphate (Gpp(NH)p). […] Thus, both the affinity of a test substance to the receptor that was in a state of not binding to the G-protein and the affinity of the test substance to the receptor that was in a state of binding to the G-protein were obtained. Then, the obtained values were compared to each other, so as to estimate the level of the intrinsic activity of the test substance. Theoretically, when the value (L/H) obtained by dividing the affinity of a test substance to the receptor that is in a low affinity state (IC50 value) by the affinity of a test substance to the receptor that is in a high affinity state (IC50 value) is 1 or less, the intrinsic activity thereof is zero. The greater this value, the higher the intrinsic activity that can be obtained.
Swine hippocampus was homogenized in a 50 mM Tris-Hcl buffer (pH 7.4; hereinafter referred to as buffer A) that had been cooled on ice. The suspension was centrifuged at 40,000×g for 15 minutes. The obtained pellet was suspended in buffer solution A, and the thus obtained solution was then centrifuged at 40,000×g for 15 minutes. The same operation was repeated 2 or 3 times. The finally obtained pellet was suspended in a buffer solution A in an amount 10 times the wet weight of the swine hippocampus, so as to obtain a membrane fraction. The obtained membrane fraction was stored at −80° C. until use.
A mixture (0.5 ml) used for incubation comprised an appropriate amount of the membrane fraction, a test substance with a desired concentration, MgCl2 (final concentration: 10 mM) or Gpp(NH)p (final concentration: 1 mM), [^3H]MPPF (final concentration: 0.5 nM), dimethyl sulfoxide (final concentration: 1% (v/v)), and a 50 mM Tris-Hcl buffer (pH 7.4). The reaction was initiated with addition of the membrane fraction, and the mixture was incubated at 37° C. for 30 minutes. After completion of the incubation, the mixture was subjected to vacuum filtration with a glass filter, using Cell Harvester. The filter was washed with buffer solution A that had been cooled on ice. Thereafter, radioactivity binding to the receptor was measured with a liquid scintillation counter. Non-specific binding was defined as binding detected in the presence of 10 μM WAY-100,635.

[2] = target: T2, serotonin 1A receptor (Mus musculus, UniProt Q64264); assay: Antagonistic effect on serotonin 1A receptor agonist (8-OH-DPAT)-induced hypothermia in mouse; format: in vivo; conditions: CD-1 (ICR) male mice; inhibition of hypothermia by 8-OH-DPAT 0.5 mg/kg sc; test substance 15 minutes before agonist
T2 construct: into the rectum of CD-1 (ICR) male mice (25-45 g); from tissue; host or cells: living CD-1 (ICR) male mice (in vivo)
T2 sequence (Q64264 1-421): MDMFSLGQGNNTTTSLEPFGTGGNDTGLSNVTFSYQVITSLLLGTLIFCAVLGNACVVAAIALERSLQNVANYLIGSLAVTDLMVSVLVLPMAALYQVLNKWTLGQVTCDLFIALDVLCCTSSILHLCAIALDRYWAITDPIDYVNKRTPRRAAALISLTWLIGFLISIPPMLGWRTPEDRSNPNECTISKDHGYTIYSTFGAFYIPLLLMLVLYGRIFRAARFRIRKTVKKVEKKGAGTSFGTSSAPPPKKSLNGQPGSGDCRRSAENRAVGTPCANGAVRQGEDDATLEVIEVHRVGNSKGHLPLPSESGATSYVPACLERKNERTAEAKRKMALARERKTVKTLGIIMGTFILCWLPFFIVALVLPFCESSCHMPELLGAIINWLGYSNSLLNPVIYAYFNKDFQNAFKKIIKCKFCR
Description: (1) A thermistor probe was inserted at a depth of approximately 2 cm into the rectum of CD-1 (ICR) male mice (25-45 g), so as to measure the body temperature thereof. Body temperature is decreased by subcutaneous administration of serotonin 1A receptor agonist (8-hydroxy-dipropylaminotetralin (8-OH-DPAT) 0;5 mg/kg. Since a serotonin 1A antagonist inhibits such action, the antagonistic effect of a test substance to a serotonin 1A receptor was evaluated using the inhibitory effect of the hypothermia as an index. The test results are shown in Table 2 indicated below. A test substance was administered 15 minutes before the administration of the serotonin 1A agonist. A serotonin 1A partial agonist alone decreases the body temperature, depending on the degree of the agonistic action thereof. In addition, it has a weak antagonistic effect on 8-OH-DPAT-induced hypothermia.

[3] = [3H]MPPF 0.5 nM, receptor in high affinity (G-protein binding, MgCl2 10 mM) state, read-out: High affinity IC50
[4] = [3H]MPPF 0.5 nM, receptor in low affinity (G-protein non-binding, Gpp(NH)p 1 mM) state, read-out: Low affinity IC50

Compound	IC50 ([1]; High affinity IC50, [3H]MPPF 0.5 nM, receptor in high affinity (G-protein binding, MgCl2 10 mM) state) [nM]	IC50 ([1]; Low affinity IC50, [3H]MPPF 0.5 nM, receptor in low affinity (G-protein non-binding, Gpp(NH)p 1 mM) state) [nM]	L/H ratio [1]	ED50 [2]	IC50 [1, 3] [nM]	IC50 [1, 4] [nM]
COc1ccc2c(C)noc2c1CCN1CCC(n2ccc3ccc(C(N)=O)cc32)CC1 [Compound 1, 1-{1-[2-(6-methoxy-3-methylbenz[d]isoxazol-7-yl)ethyl]piperidin-4-yl}-1H-indole-6-carboxamide]	0.16	0.26	1.6	0.3 mg/kg, sc		
COc1cc2onc(C)c2cc1CCN1CCC(n2ccc3ccc(C(N)=O)cc32)CC1 [Compound 2, 1-{1-[2-(6-methoxy-3-methylbenzo[d]isoxazol-5-yl)ethyl]piperidin-4-yl}-1H-indole-6-carboxamide]			1.3	0.4 mg/kg, sc	0.27	0.35
CON=C1CCc2c(CCN3CCC(n4ccc5ccc(C(N)=O)cc54)CC3)c(OC)cc(OC)c21 [Compound 11, 1-{1-[2-(5,7-dimethoxy-1-methoxyiminoindan-4-yl)ethyl]piperidin-4-yl}-1H-indole-6-carboxamide]			0.4		0.22	0.1
COc1cc2c(cc1CCN1CCC(n3ccc4ccc(C(N)=O)cc43)CC1)C(=O)CCCO2 [Compound 12, 1-{1-[2-(8-methoxy-5-oxo-2,3,4,5-tetrahydrobenzo[b]oxepin-7-yl)ethyl]piperidin-4-yl}-1H-indole-6-carboxamide]			0.9		0.17	0.16
CON=C1CCCOc2cc(OC)c(CCN3CCC(n4ccc5ccc(C(N)=O)cc54)CC3)cc21 [Compound 13, 1-{1-[2-(8-methoxy-5-methoxyimino-2,3,4,5-tetrahydrobenzo[b]oxepin-7-yl)ethyl]piperidin-4-yl}-1H-indole-6-carboxamide]			0.7		0.32	0.22
COc1ccc2c(c1CCN1CCC(n3ccc4ccc(C(N)=O)cc43)CC1)CC(C)(C)C2=O [Compound 14, 1-{1-[2-(5-methoxy-2,2-dimethyl-1-oxoindan-4-yl)ethyl]piperidin-4-yl}-1H-indole-6-carboxamide]			0.7		0.46	0.34
CNC(=O)c1ccc2ccn(C3CCN(CCc4c(OC)ccc5nc(C)oc45)CC3)c2c1 [Compound 15]			0.8		0.72	0.61
CNC(=O)c1ccc2ccn(C3CCN(CCc4cc5nc(C)oc5cc4OC)CC3)c2c1 [Compound 16, 1-{1-[2-(6-methoxy-2-methylbenzoxazol-5-yl)ethyl]piperidin-4-yl}-N-methyl-1H-indole-6-carboxamide]			0.9		0.18	0.17
CON=C1CCCc2c1ccc(OC)c2CCN1CCC(n2ccc3ccc(C(N)=O)cc32)CC1 [Compound 19, 1-{1-[2-(2-methoxy-5-methoxyimino-5,6,7,8-tetrahydronaphthalen-1-yl)ethyl]piperidin-4-yl}-1H-indole-6-carboxamide]			0.6		1.1	0.69
COc1ccc2cccnc2c1CCN1CCC(n2ccc3ccc(C(N)=O)cc32)CC1 [Compound 29, 1-{1-[2-(7-methoxyquinolin-8-yl)ethyl]piperidin-4-yl}-1H-indole-6-carboxamide]			0.9		0.34	0.3
COc1ccc2c(c1CCN1CCC(n3ccc4ccc(C(N)=O)cc43)CC1)OCC(C)(C)C2=O [Compound 37, 1-{1-[2-(7-methoxy-3,3-dimethyl-4-oxochroman-8-yl)ethyl]piperidin-4-yl}-1H-indole-6-carboxamide]			0.7		0.55	0.39
COc1cc2c(cc1CCN1CCC(n3ccc4ccc(C(N)=O)cc43)CC1)N(C)C(=O)OC2 [Compound 39, 1-{1-[2-(6-methoxy-methyl-oxo-1,4-dihydro-2H-benz[d][1,3]oxazin-7-yl)ethyl]piperidin-4-yl}-1H-indole-6-carboxamide]					0.13	0.09
COCC1(C)CC(=O)c2ccc(OC)c(CCN3CCC(n4ccc5ccc(C(N)=O)cc54)CC3)c2O1 (stereo not shown) [Compound 40, 1-{1-[2-(7-methoxy-2-methoxymethyl-2-methyl-4-oxochroman-8-yl)ethyl]piperidin-4-yl}-1-H-indole-6-carboxamide]			0.9		0.18	0.17
COc1ccc2c(c1CCN1CCC(n3ccc4ccc(C(N)=O)cc43)CC1)OC1(CCCC1)CC2=O [Compound 41, 1-{1-[2-(7-methoxy-4-oxo-spiro(chroman-2,1′-cyclopentan)-8-yl)ethyl]piperidin-4-yl}-1H-indole-6-carboxamide]			0.7		0.2	0.14
COc1ccc2c(c1CCN1CCC(n3ccc4ccc(C(N)=O)cc43)CC1)OC1(CCOCC1)CC2=O [Compound 43, 1-{1-[2-(7-methoxy-4-oxo-spiro(chroman-2,4′-oxan)-8-yl)ethyl]piperidin-4-yl}-1H-indole-6-carboxamide]			0.7		0.22	0.15
COc1cc2c(cc1CCN1CCC(n3ccc4ccc(C(N)=O)cc43)CC1)C(O)CC2 (stereo not drawn) [Compound 50, 1-{l-[2-(3-hydroxy-6-methoxyindan-5-yl)ethyl]piperidin-4-yl}-1H-indole-6-carboxamide]			1		0.21	0.21
COc1cc2c(cc1CCN1CCC(n3ccc4ccc(C(N)=O)cc43)CC1)NC(=O)CC2 [Compound 56, 1-{1-[2-(6-methoxy-2-oxo-1,2,3,4-tetrahydroquinolin-7-yl)ethyl]piperidin-4-yl}-1H-indole-6-carboxamide]			0.5		0.07	0.04
